In paper PMC9413440, “An Iterative Approach Guides Discovery of the FabI Inhibitor Fabimycin, a Late-Stage Antibiotic Candidate with In Vivo Efficacy against Drug-Resistant Gram-Negative Infections” (ACS Central Science, 2022):
Converted amounts (≈) assume the structure as drawn.

Columns and labels:
E. coli AR-0055 [1] = assay: Urinary tract infection model; format: in vivo, mouse; conditions: 33.3 mg/kg IV three times a day, 168 h postinfection
Experimental: Urinary tract infection model
The protocol to assess fabimycin’s efficacy in a urinary tract infection was approved by the IACUC (protocol number:
IM011-12282020). In this study specific pathogen-free C3H/HeJ (Tlr4Lps-d) mice that were 7-8 weeks were used and provided with 5% glucose for 6 days prior to infection and for the duration of the experiment.12, 13 On day 0, mice were infected with E. coli AR-0055 (1.38 * 10^9 CFU/mouse, transurethral) while under pentobarbital anesthesia (50 mg/kg, IP). Treatment was initiated 96 hours post-infection with test articles. Fabimycin was formulated in 17% Cremophor EL/3% SBE-β-CD and administered intravenously while the control, colistin, was formulated in 0.9% NaCl and administered subcutaneously. Doses were administered once, twice, or three times daily for 3 consecutive days with animal sacrifice and burden enumeration at 168 hours post-infection. Tissues were collected and pathogen burden evaluated by dilution plating technique on nutrient agar plates.

S. aureus USA300 LAC = assay: Neutropenic thigh infection model; format: in vivo, mouse; conditions: neutropenic CD-1 mice, MRSA clinical isolate; 5 mg/kg retro-orbital IV 2 and 7 h postinfection; burden at 24 h
Experimental: Neutropenic thigh infection model
Acclimated CD-1 mice (see above) were rendered neutropenic prior to the experiment via cyclophosphamide treatment. […]
For the gram-positive infection model S. aureus USA300LAC was established intramuscular injection at 2.3 * 10^6 CFU/mouse. Mice were treated with FabI inhibitors at 2 and 7 hours post-infection with burden being assessed at 24 hours post-infection. […]
The protocol to assess fabimycin’s efficacy in A. baumannii-infected mice (strain: AR-0088) was approved by the IACUC at Pharmacology Discovery Services, Taiwan, Ltd. (protocol number: IM003-01282019). In this study, neutropenic female BALB/c mice 7-8 weeks in age from BioLASCO Taiwan (AAALAC-certified Charles River Licensee) weighing 18 ± 2 grams were used. The mice were rendered neutropenic and inoculated in the same method as used for the pharmacokinetic study. […]
Animals were euthanized using compressed CO2 gas in a CO2 gas chamber. […] Bacterial burden in the tissue homogenates was determined by performing 10-fold serial dilutions and plating 0.1 mL of each to nutrient agar plates. Colonies were counted after 18 - 24 h incubation. The colony-forming unit value per tissue (CFU/thigh) was calculated. […]
IM011-12282020). […] Tissues were collected and pathogen burden evaluated by dilution plating technique on nutrient agar plates.

A. baumannii AR-0088 = assay: MIC against infective strain of PK/thigh models; format: cell-based; conditions: Acinetobacter baumannii, AR0088; drug-resistant A. baumannii, infective strain of the PK study (AR-0088)
Experimental: (§1) II. Materials and Methods for Biological Experiments
(§2) S. aureus ATCC 29213 and E. coli MG1655 were obtained from the American Type Culture Collection (ATCC). E. coli BW25113 and E. coli JW5503 were obtained from the Keio Collection. AR-bank strains were obtained from the Centers for Disease Control and Prevention and FDA Antibiotic Resistance Isolate Bank.
(§3) Antimicrobial susceptibility tests
(§4) Susceptibility testing was performed in biological triplicate, unless noted otherwise, using the micro-dilution broth method as outlined by the Clinical and Laboratory Standards Institute. Bacteria were cultured with cation-adjusted Mueller Hinton broth (Sigma Aldrich, catalogue number: 90922). […]
Error bars represent the standard error of the mean of three biological replicates. All compounds evaluated in biological assays were ≥95% pure.

E. coli AR-0055 [2] = assay: MIC against infective strain of UTI model; format: cell-based; conditions: Escherichia coli, AR0055; extensively drug-resistant, carbapenem-resistant E. coli of the UTI model (AR-0055)
Experimental: as §1, §2, §3, §4
NH3: m/z 391.2 → 171.0. Fabimycin: m/z 405.3 → 145.3. Power analysis was not used to determine the number of replicates. Error bars represent the standard error of the mean of three biological replicates. All compounds evaluated in biological assays were ≥95% pure.

Cc1c(CN(C)C(=O)/C=C/c2cnc3c(c2)CC[C@H](N)C(=O)N3)oc2ccccc12 [fabimycin]
log10 reduction in bacterial load relative to the vehicle (E. coli AR-0055 [1]; bladder): 2.8 log10
log10 reduction in bacterial load relative to the vehicle (E. coli AR-0055 [1]; kidney): 1.9 log10
log10 reduction in bacterial load relative to the vehicle (E. coli AR-0055 [1]; liver): 2.9 log10
log10 reduction in bacterial load relative to the vehicle (E. coli AR-0055 [1]; spleen): 3.0 log10
reduction of bacterial burden (S. aureus USA300 LAC): significantly greater reduction of bacterial burden relative to Debio-1452
MIC (A. baumannii AR-0088): 2 µg/mL (≈ 4.94 µM)
MIC (E. coli AR-0055 [2]): 2 µg/mL (≈ 4.94 µM)
